Test results: ChEMBL document CHEMBL1201862, “PubChem BioAssay data set” (2004)
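Following 48 hours of exposure in 96-well plates, responses at five concentrations were used to interpolate endpoints linearly. Abbreviation: GI50, concentration required for 50% inhibition of growth.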 Active and inactive are the calls of the source. Rule as the data show it: active = GI50 up to about 1.1 µM and inactive = higher.

Tests used:
Experiment in all cases: NCI tumour cell line growth inhibition, 48 h
PC-3 = system: PC-3
SK-MEL-5 = system: SK-MEL-5
K562 = system: K562
SF-295 = system: SF-295
EKVX = system: EKVX
NCI-H522 = system: NCI-H522
OVCAR-4 = system: OVCAR-4
NCI-H226 = system: NCI-H226
DU-145 = system: DU-145
U-251 = system: U-251
HCC 2998 = system: HCC 2998
CAKI-1 = system: CAKI-1
OVCAR-5 = system: OVCAR-5
SK-MEL-2 = system: SK-MEL-2
T47D = system: T47D
MOLT-4 = system: MOLT-4
SF-268 = system: SF-268
M14 = system: M14
HL-60 = system: HL-60
SK-OV-3 = system: SK-OV-3
SF-539 = system: SF-539
MDA-MB-231 = system: MDA-MB-231
SK-MEL-28 = system: SK-MEL-28
MCF7 = system: MCF7
NCI-H460 = system: NCI-H460
HOP-62 = system: HOP-62
RPMI-8226 = system: RPMI-8226
SN12C = system: SN12C
KM12 = system: KM12
OVCAR-8 = system: OVCAR-8
LOX IMVI = system: LOX IMVI
BT-549 = system: BT-549
Malme-3M = system: Malme-3M
TK-10 = system: TK-10
MDA-N = system: MDA-N
A498 = system: A498
SR = system: SR
UACC-62 = system: UACC-62
IGROV-1 = system: IGROV-1
HOP-92 = system: HOP-92
HCT-15 = system: HCT-15
RXF 393 = system: RXF 393
SNB-75 = system: SNB-75
Hs-578T = system: Hs-578T
CCRF-CEM = system: CCRF-CEM
ACHN = system: ACHN
786-0 = system: 786-0
HT-29 = system: HT-29
MDA-MB-435 = system: MDA-MB-435
SNB-19 = system: SNB-19
NCI/ADR-RES = system: NCI/ADR-RES
HCT-116 = system: HCT-116
UACC-257 = system: UACC-257
A549 = system: A549
NCI-H23 = system: NCI-H23
SW-620 = system: SW-620
COLO 205 = system: COLO 205
OVCAR-3 = system: OVCAR-3
UO-31 = system: UO-31

## CC(=O)c1c(C)cc2cccc(OC3OC(CO)C(O)C(O)C3O)c2c1O.CC1OC(O)C(O)C(O)C1O (configuration not stated)
PC-3
  GI50: > 100 µM (inactive)
SK-MEL-5
  GI50: > 100 µM (inactive)
K562
  GI50: > 100 µM (inactive)
SF-295
  GI50: > 100 µM (inactive)
EKVX
  GI50: > 100 µM (inactive)
NCI-H522
  GI50: > 100 µM (inactive)
OVCAR-4
  GI50: > 100 µM (inactive)
NCI-H226
  GI50: > 100 µM (inactive)
DU-145
  GI50: > 100 µM (inactive)
U-251
  GI50: > 100 µM (inactive)
HCC 2998
  GI50: > 100 µM (inactive)
CAKI-1
  GI50: > 100 µM (inactive)
OVCAR-5
  GI50: > 100 µM (inactive)
SK-MEL-2
  GI50: > 100 µM (inactive)
T47D
  GI50: > 100 µM (inactive)
MOLT-4
  GI50: > 100 µM (inactive)
SF-268
  GI50: > 100 µM (inactive)
M14
  GI50: > 100 µM (inactive)
HL-60
  GI50: > 100 µM (inactive)
SK-OV-3
  GI50: > 100 µM (inactive)
SF-539
  GI50: > 100 µM (inactive)
MDA-MB-231
  GI50: > 100 µM (inactive)
SK-MEL-28
  GI50: > 100 µM (inactive)
MCF7
  GI50: > 100 µM (inactive)
NCI-H460
  GI50: > 100 µM (inactive)
HOP-62
  GI50: > 100 µM (inactive)
RPMI-8226
  GI50: > 100 µM (inactive)
SN12C
  GI50: > 100 µM (inactive)
KM12
  GI50: > 100 µM (inactive)
OVCAR-8
  GI50: > 100 µM (inactive)
LOX IMVI
  GI50: > 100 µM (inactive)
BT-549
  GI50: > 100 µM (inactive)
Malme-3M
  GI50: > 100 µM (inactive)
TK-10
  GI50: > 100 µM (inactive)
MDA-N
  GI50: > 100 µM (inactive)
A498
  GI50: > 100 µM (inactive)
SR
  GI50: > 100 µM (inactive)
UACC-62
  GI50: > 100 µM (inactive)
IGROV-1
  GI50: > 100 µM (inactive)
HOP-92
  GI50: > 100 µM (inactive)
HCT-15
  GI50: > 100 µM
RXF 393
  GI50: > 100 µM (inactive)
SNB-75
  GI50: > 100 µM (inactive)
Hs-578T
  GI50: > 100 µM (inactive)
CCRF-CEM
  GI50: > 100 µM (inactive)
ACHN
  GI50: > 100 µM (inactive)
786-0
  GI50: > 100 µM (inactive)
HT-29
  GI50: > 100 µM (inactive)
MDA-MB-435
  GI50: > 100 µM (inactive)
SNB-19
  GI50: > 100 µM (inactive)
NCI/ADR-RES
  GI50: > 100 µM (inactive)
HCT-116
  GI50: > 100 µM (inactive)
UACC-257
  GI50: > 100 µM (inactive)
A549
  GI50: > 100 µM (inactive)
NCI-H23
  GI50: > 100 µM (inactive)
SW-620
  GI50: > 100 µM (inactive)
COLO 205
  GI50: > 100 µM (inactive)
OVCAR-3
  GI50: > 100 µM (inactive)

## C[C@H]1COC2=C1C(=O)C(=O)c1c2ccc2c1CCCC2(C)C [CRYPTOTANSHINONE]
PC-3
  GI50: 4.93 µM (inactive)
SK-MEL-5
  GI50: 0.382 µM (active)
K562
  GI50: 3.61 µM (inactive)
SF-295
  GI50: 1.68 µM (inactive)
EKVX
  GI50: 4.62 µM (inactive)
NCI-H522
  GI50: 2.01 µM (inactive)
OVCAR-4
  GI50: 12.2 µM (inactive)
NCI-H226
  GI50: 3.24 µM (inactive)
DU-145
  GI50: 1.35 µM (inactive)
U-251
  GI50: 2 µM (inactive)
HCC 2998
  GI50: 2.48 µM (inactive)
CAKI-1
  GI50: 8.22 µM (inactive)
OVCAR-5
  GI50: 16.1 µM (inactive)
SK-MEL-2
  GI50: 4.25 µM (inactive)
T47D
  GI50: 9.46 µM (inactive)
MOLT-4
  GI50: 4.24 µM (inactive)
SF-268
  GI50: 1.9 µM (inactive)
M14
  GI50: 1.03 µM (active)
HL-60
  GI50: 2.39 µM (inactive)
SK-OV-3
  GI50: 11.6 µM (inactive)
SF-539
  GI50: 3.35 µM (inactive)
MDA-MB-231
  GI50: 12 µM (inactive)
SK-MEL-28
  GI50: 3.19 µM (inactive)
MCF7
  GI50: 2.22 µM (inactive)
NCI-H460
  GI50: 1.63 µM (inactive)
HOP-62
  GI50: 3.68 µM (inactive)
UO-31
  GI50: 4.7 µM (inactive)
RPMI-8226
  GI50: 3.31 µM (inactive)
SN12C
  GI50: 4.37 µM (inactive)
KM12
  GI50: 2.19 µM (inactive)
OVCAR-8
  GI50: 2.58 µM (inactive)
LOX IMVI
  GI50: 2.52 µM (inactive)
BT-549
  GI50: 2.11 µM (inactive)
Malme-3M
  GI50: 0.305 µM (active)
TK-10
  GI50: 8.18 µM (inactive)
MDA-N
  GI50: 1.61 µM (inactive)
A498
  GI50: 18.3 µM (inactive)
SR
  GI50: 3.42 µM (inactive)
UACC-62
  GI50: 2.03 µM (inactive)
IGROV-1
  GI50: 2.71 µM (inactive)
HOP-92
  GI50: 40.8 µM (inactive)
HCT-15
  GI50: 1.94 µM
RXF 393
  GI50: 6.3 µM (inactive)
SNB-75
  GI50: 0.881 µM (active)
Hs-578T
  GI50: 2.29 µM (inactive)
CCRF-CEM
  GI50: 4.31 µM (inactive)
ACHN
  GI50: 3.6 µM (inactive)
786-0
  GI50: 3.42 µM (inactive)
HT-29
  GI50: 2.18 µM (inactive)
MDA-MB-435
  GI50: 1.42 µM (inactive)
SNB-19
  GI50: 2.52 µM (inactive)
NCI/ADR-RES
  GI50: 2.79 µM (inactive)
HCT-116
  GI50: 2.96 µM (inactive)
UACC-257
  GI50: 1.95 µM (inactive)
A549
  GI50: 1.05 µM (active)
NCI-H23
  GI50: 1.55 µM (inactive)
SW-620
  GI50: 1.73 µM (inactive)
COLO 205
  GI50: 1.15 µM (inactive)
OVCAR-3
  GI50: 0.326 µM (active)
